Experiments:
mice [1] = experiment: In vivo delivery of FLuc-mRNA lipid nanoparticles in mice, in vivo imaging (IVIS)
How it was run: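 Mice (n=3) received about 75 μL FLuc-mRNA LNP per mouse intramuscularly (rectus femoris), intravenously (tail vein), intraperitoneally or subcutaneously (back). After injection, D-luciferin (200 μL, 15 mg/mL) was given i.p. 10-15 min before IVIS imaging.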

[2] = Potential characterization of nucleic acid lipid nanoparticle preparations; assay type: physicochemical
How it was run: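 Nanoparticles (about 0.04 mg/mL mRNA) were diluted in ultrapure water for Malvern ZEN3700 measurement: 20 μL into 780 μL for potential alone, or 27.5 μL into 200 μL for DLS particle size followed by addition of 600 μL water for potential.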

[3] = Particle size and PDI of nucleic acid lipid nanoparticle preparations by dynamic light scattering; assay type: physicochemical
How it was run: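 Size read by DLS after diluting the LNP preparation (approx. 0.04 mg/mL mRNA) in ultrapure water with gentle pipette mixing. The same sample, recovered and diluted further with water, was then used for zeta potential measurement.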

mice [4] = experiment: In vivo delivery of FLuc-circ-RNA lipid nanoparticles in mice; conditions: Fluc-circ-RNA LNP, organ not given
Experimental: Lipid nanoparticles loaded with nucleic acid drugs were prepared according to step 2, replacing FLuc-mRNA with FLuc-circ-RNA (Hongene Biotech Corporation, Shanghai). After formulation, the nanoparticles were administered via intramuscular injection (into the quadriceps femoris muscle of mice), intravenous injection (into the tail vein of mice), intraperitoneal injection, or subcutaneous injection (subcutaneously on the back). Approximately 75 μL was injected per mouse, with a total of 3 mice per group. In vivo imaging (PerkinElmer, IVIS Lumina III) was performed after a certain period of time. Ten to fifteen minutes before imaging, 200 μL of a 15 mg/mL D-Luciferin working solution was injected intraperitoneally, followed by imaging analysis using the in vivo imaging system.

[5] = mPEG-DMPE:DOPE:Chol:compound 1.40:11.15:38.95:48.50, N/P 24
[6] = DSPE-PEG5000:DPPC:Chol:compound 1.00:11.15:39.35:48.50, N/P 15
[7] = mRNA LNP, 1.00:10.00:33.00:56.00, N/P 42, IV, liver
[8] = mRNA LNP, 1.00:10.00:33.00:56.00, N/P 42, IV, lung
[9] = mRNA LNP, 1.00:10.00:33.00:56.00, N/P 42, IV, spleen
[10] = mRNA LNP, 1.40:11.15:38.95:48.50, N/P 30, IM, organ not given
[11] = mRNA LNP, 1.40:11.15:38.95:48.50, N/P 30, IV, liver
[12] = mRNA LNP, 1.40:11.15:38.95:48.50, N/P 30, IV, lung
[13] = mRNA LNP, 1.40:11.15:38.95:48.50, N/P 30, IV, spleen
[14] = mRNA LNP, DMG-PEG2000:DSPC:Chol:lipid 1.40:11.15:38.95:48.50, N/P 30, IV, body
[15] = mRNA LNP, 1.00:10.00:33.00:56.00, N/P 42
[16] = mRNA LNP, 1.40:11.15:38.95:48.50, N/P 30
[17] = mRNA LNP, 1.00:4.00:30.00:65.00, N/P 30, IV, liver
[18] = mRNA LNP, 1.00:4.00:30.00:65.00, N/P 30, IV, lung
[19] = mRNA LNP, 1.00:4.00:30.00:65.00, N/P 30, IV, spleen
[20] = mRNA LNP, 1.00:4.00:30.00:65.00, N/P 30
[21] = DMG-PEG2000:DSPC:Chol:Lipid 1.40:11.15:38.95:48.50, N/P 10, IV, liver
[22] = DMG-PEG2000:DSPC:Chol:Lipid 1.40:11.15:38.95:48.50, N/P 10, IV, lung
[23] = DMG-PEG2000:DSPC:Chol:Lipid 1.40:11.15:38.95:48.50, N/P 10, IV, spleen
[24] = DMG-PEG2000:DSPC:Chol:Lipid 1.40:11.15:38.95:48.50, N/P 10, mRNA LNP, preparation given IH
[25] = DMG-PEG2000:DSPC:Chol:Lipid 1.40:11.15:38.95:48.50, N/P 10, mRNA LNP, preparation given IV
[26] = Fluc-circ-RNA LNP, preparation given IM
[27] = Fluc-circ-RNA LNP, preparation given IV

CCCCCCCCCCN(C)C(=O)C(O)CN(CCCN(C)CCCN(CC(O)C(=O)N(C)CCCCCCCCCC)CC(O)C(=O)N(C)CCCCCCCCCC)CC(O)C(=O)N(C)CCCCCCCCCC (stereo not shown) [Compound L0347]
IVIS (mice [1]; IM, mPEG-DMPE:DOPE:Chol:compound 1.40:11.15:38.95:48.50, N/P 24, Fluc-mRNA): 6.65E+04 | IVIS (mice [1]; IV, body, mPEG-DMPE:DOPE:Chol:compound 1.40:11.15:38.95:48.50, N/P 24, Fluc-mRNA): 3.20E+06 | % of organ targeting (mice [1]; IV, liver, mPEG-DMPE:DOPE:Chol:compound 1.40:11.15:38.95:48.50, N/P 24): 1.47% | IVIS (mice [1]; IV, liver, mPEG-DMPE:DOPE:Chol:compound 1.40:11.15:38.95:48.50, N/P 24, Fluc-mRNA): 1.56E+05 | % of organ targeting (mice [1]; IV, lung, mPEG-DMPE:DOPE:Chol:compound 1.40:11.15:38.95:48.50, N/P 24): 86.45% | IVIS (mice [1]; IV, lung, mPEG-DMPE:DOPE:Chol:compound 1.40:11.15:38.95:48.50, N/P 24, Fluc-mRNA): 9.16E+06 | % of organ targeting (mice [1]; IV, spleen, mPEG-DMPE:DOPE:Chol:compound 1.40:11.15:38.95:48.50, N/P 24): 12.08% | IVIS (mice [1]; IV, spleen, mPEG-DMPE:DOPE:Chol:compound 1.40:11.15:38.95:48.50, N/P 24, Fluc-mRNA): 1.28E+06 | Zeta potential (mV) [2, 5]: 10.83 mV | PDI [3, 5]: 0.10 | Particle size (nm) [3, 5]: 148.60 nm

CCCCCCCCCCN(C)C(=O)C(O)CN(C)CCN(C)CCN(C)CC(O)C(=O)N(C)CCCCCCCCCC (stereo not shown) [Compound L0348]
IVIS (mice [1]; Fluc-mRNA LNP, route IM, organ not given, formulation, molar ratio and N/P as in the table): 3.49E+05 | IVIS (mice [1]; IV, organ not given, DSPE-PEG5000:DPPC:Chol:compound 1.00:11.15:39.35:48.50, N/P 15, Fluc-mRNA): 4.84E+05 | Zeta potential (mV) [2, 6]: 5.54 mV | PDI [3, 6]: 0.14 | Particle size (nm) [3, 6]: 118.20 nm

CCCCCCCCCCCCNC(=O)CCN(CCCN(C)CCCN(CCC(=O)NCCCCCCCCCCCC)CCC(=O)NCCCCCCCCCCCC)CCC(=O)NCCCCCCCCCCCC [L0263-Control, reference compound]
% of organ targeting (mice [1]; [7]): 0.59% | IVIS (mice [1]; [7]): 5.33E+06 | % of organ targeting (mice [1]; [8]): 97.16% | IVIS (mice [1]; [8]): 8.80E+08 | % of organ targeting (mice [1]; [9]): 2.25% | IVIS (mice [1]; [9]): 2.04E+07 | IVIS (mice [1]; [10]): 7.79E+05 | % of organ targeting (mice [1]; [11]): 1.59% | IVIS (mice [1]; [11]): 3.11E+06 | % of organ targeting (mice [1]; [12]): 80.11% | IVIS (mice [1]; [12]): 1.57E+08 | % of organ targeting (mice [1]; [13]): 18.30% | IVIS (mice [1]; [13]): 3.59E+07 | IVIS (mice [1]; mRNA LNP, DMG-PEG2000:DSPC:Chol:lipid 1.00:10.00:33.00:56.00, N/P 42, IV, body): 1.28E+08 | IVIS (mice [1]; [14]): 5.69E+07 | Zeta potential (mV) [2, 15]: 11.13 mV | Zeta potential (mV) [2, 16]: 10.97 mV | PDI [3, 15]: 0.13 | Particle size (nm) [3, 15]: 112.27 nm | PDI [3, 16]: 0.16 | Particle size (nm) [3, 16]: 102.50 nm

CCCCCCCCCCCCNC(=O)CCN(CCC(=O)NCCCCCCCCCCCC)CCN(C)CCN(CCC(=O)NCCCCCCCCCCCC)CCC(=O)NCCCCCCCCCCCC [L0264-Control, reference compound]
% of organ targeting (mice [1]; [17]): 0.58% | IVIS (mice [1]; [17]): 1.67E+06 | % of organ targeting (mice [1]; [18]): 86.18% | IVIS (mice [1]; [18]): 2.49E+08 | % of organ targeting (mice [1]; [19]): 13.25% | IVIS (mice [1]; [19]): 3.82E+07 | IVIS (mice [1]; [10]): 1.37E+05 | % of organ targeting (mice [1]; [11]): 1.25% | IVIS (mice [1]; [11]): 8.01E+05 | % of organ targeting (mice [1]; [12]): 74.91% | IVIS (mice [1]; [12]): 4.81E+07 | % of organ targeting (mice [1]; [13]): 23.85% | IVIS (mice [1]; [13]): 1.53E+07 | IVIS (mice [1]; mRNA LNP, DMG-PEG2000:DSPC:Chol:lipid 1.00:4.00:30.00:65.00, N/P 30, IV, body): 1.10E+08 | IVIS (mice [1]; [14]): 2.50E+07 | Zeta potential (mV) [2, 20]: 13.40 mV | Zeta potential (mV) [2, 16]: 16.43 mV | PDI [3, 20]: 0.17 | Particle size (nm) [3, 20]: 97.75 nm | PDI [3, 16]: 0.18 | Particle size (nm) [3, 16]: 91.53 nm

CCCCCCCCCCCOC(=O)CCCCCN(CCO)CCCCCCCC(=O)OC(CCCCCCCC)CCCCCCCC [SM-102, reference compound]
IVIS (mice [1]; DMG-PEG2000:DSPC:Chol:Lipid 1.40:11.15:38.95:48.50, N/P 10, IH, whole body scan): 1.62 × 10^7 | IVIS (mice [1]; DMG-PEG2000:DSPC:Chol:Lipid 1.40:11.15:38.95:48.50, N/P 10, IM, whole body scan): 6.67 × 10^7 | IVIS (mice [1]; DMG-PEG2000:DSPC:Chol:Lipid 1.40:11.15:38.95:48.50, N/P 10, IV, body): 1.02 × 10^8 | % of organ targeting (mice [1]; [21]): 61.21% | IVIS (mice [1]; [21]): 1.99 × 10^7 | % of organ targeting (mice [1]; [22]): 0.96% | IVIS (mice [1]; [22]): 3.11 × 10^5 | % of organ targeting (mice [1]; [23]): 37.83% | IVIS (mice [1]; [23]): 1.23 × 10^7 | tissue-targeting specificity (lung vs spleen depending on molar percentage of compound) (mice [1]; certain formulations, Table 2): not observed | IVIS (mice [4]; IM): 2.06E+09 | IVIS (mice [4]; IV): 1.06E+09 | PDI [3, 24]: 0.16 ± 0.01 | Particle size [3, 24]: 127.47 ± 2.05 nm | Particle size ([3]; DMG-PEG2000:DSPC:Chol:Lipid 1.40:11.15:38.95:48.50, N/P 10, mRNA LNP, preparation given IM): 111.27 ± 0.84 nm | PDI [3, 25]: 0.06 ± 0.02 | Particle size [3, 25]: 131.20 ± 1.25 nm | PDI [3, 26]: 0.09 | Particle size (nm) [3, 26]: 90.08 nm | PDI [3, 27]: 0.19 | Particle size (nm) [3, 27]: 65.67 nm
